# Values joined by “and” are separate entries in the source; they are usually repeats but may differ in a detail not shown here. Identical values can stand only once.
# How the values were obtained:
# Type in all cases: cell-based
# HCT116 p53 +/+ = test: MTT cytotoxicity assay, HCT116 p53 +/+; details: replicate values
# Method: (§1) IC50 was determined using an MTT assay.
# HCT116 p53 −/− = test: MTT cytotoxicity assay, HCT116 p53 -/-; details: replicate values
# Method: as §1
# MDA-MB 435 = test: MTT cytotoxicity assay, MDA-MB 435
# Method: For example, compound 1-[5-chloro-2-(4-methoxy-phenyl)-3-trifluoromethyl-indol-1-yl]-ethanone, prepared under Example 2 of the present application, has shown potential anticancer activity against several cancer cell lines.
# as §1
# H29 = test: MTT cytotoxicity assay, H29; details: replicate values
# Method: as §1
# Skov-3 = test: MTT cytotoxicity assay, Skov-3; details: replicate values
# Method: as §1
# MCF7 = test: MTT cytotoxicity assay, MCF7; details: replicate values
# Method: as §1
# [1] = Homo sapiens, HCT-116, MTT assay
structure (smiles),measurement,setting,value
"COc1ccc(-c2c(C(F)(F)F)c3cc(Cl)ccc3n2C(C)=O)cc1 [Example 2, 1-[5-chloro-2-(4-methoxy-phenyl)-3-trifluoromethyl-indol-1-yl]-ethanone]",IC50,HCT116 p53 +/+; [1],14.5 µg/mL
same,IC50 HCT116 p53 +/+,HCT116 p53 +/+; MTT assay,15.4 µg/mL
same,IC50,HCT116 p53 −/−; [1],13.2 µg/mL
same,IC50 HCT116 p53 −/−,HCT116 p53 −/−; MTT assay,8.4 µg/mL and 9.4 µg/mL and 9.2 µg/mL
same,cytotoxicity against the MDA MB-435 cell line,"MDA-MB 435; 10 micromolar (μM) concentration, MTT assay",80.8%
same,IC50,"MDA-MB 435; Homo sapiens, MDA-MB-435, MTT assay, replicate values",11.1 µg/mL
same,IC50 MDA-MB 435,"MDA-MB 435; MTT assay, replicate values",8.5 µg/mL and 7.4 µg/mL and 9.6 µg/mL
same,IC50,H29,9.6 µg/mL
same,IC50 H29,H29,9.8 µg/mL
same,IC50,"Skov-3; Homo sapiens, SK-OV-3, MTT assay",15.8 µg/mL
same,IC50 Skov-3,Skov-3; MTT assay,17.2 µg/mL
same,IC50,"MCF7; Homo sapiens, MCF7, MTT assay",18.8 µg/mL
same,IC50 MCF7,MCF7; MTT assay,18 µg/mL

# From US20090247766A1, “Substituted Nitrogen Heterocycles and Synthesis and Uses Thereof” (University of Southern California, priority 2008, published 2009)
